Consider 6 compounds from patent publication US10231954B2, “Neurodegenerative therapies” (LYTIX BIOPHARMA AS, priority 2014, dated 2019).

Structures are written as SMILES.

Common to all, as to format: biochemical
For test [1], the target named is YES1 (Homo sapiens, UniProt P07947). Kind of test: Kinase profiling YES1. Particulars: 100 micromolar inhibitor concentration, 100 is no change. The source says:
(§1) Any value less that 25 is considered to be highly significant inhibition.

Test [2] concerns AMPK. Kind of test: Kinase profiling AMPK. The following applies: 100 micromolar inhibitor concentration; 100 is no change.
Text: as §1

Test [3] addresses MEKK1 (Homo sapiens, UniProt Q13233). Description: Kinase profiling MEKK1. The following applies: 100 micromolar inhibitor concentration, 100 is no change.
Text: as §1

In test [4] the target is PAK5 (Homo sapiens, UniProt Q9P286). Kind of test: Kinase profiling PAK5. The following applies: 100 micromolar inhibitor concentration, 100 is no change.
Text: as §1

Test [5] concerns the target T1, EPH-B3 (Homo sapiens, UniProt P54753).
T1 sequence (P54753 34-998): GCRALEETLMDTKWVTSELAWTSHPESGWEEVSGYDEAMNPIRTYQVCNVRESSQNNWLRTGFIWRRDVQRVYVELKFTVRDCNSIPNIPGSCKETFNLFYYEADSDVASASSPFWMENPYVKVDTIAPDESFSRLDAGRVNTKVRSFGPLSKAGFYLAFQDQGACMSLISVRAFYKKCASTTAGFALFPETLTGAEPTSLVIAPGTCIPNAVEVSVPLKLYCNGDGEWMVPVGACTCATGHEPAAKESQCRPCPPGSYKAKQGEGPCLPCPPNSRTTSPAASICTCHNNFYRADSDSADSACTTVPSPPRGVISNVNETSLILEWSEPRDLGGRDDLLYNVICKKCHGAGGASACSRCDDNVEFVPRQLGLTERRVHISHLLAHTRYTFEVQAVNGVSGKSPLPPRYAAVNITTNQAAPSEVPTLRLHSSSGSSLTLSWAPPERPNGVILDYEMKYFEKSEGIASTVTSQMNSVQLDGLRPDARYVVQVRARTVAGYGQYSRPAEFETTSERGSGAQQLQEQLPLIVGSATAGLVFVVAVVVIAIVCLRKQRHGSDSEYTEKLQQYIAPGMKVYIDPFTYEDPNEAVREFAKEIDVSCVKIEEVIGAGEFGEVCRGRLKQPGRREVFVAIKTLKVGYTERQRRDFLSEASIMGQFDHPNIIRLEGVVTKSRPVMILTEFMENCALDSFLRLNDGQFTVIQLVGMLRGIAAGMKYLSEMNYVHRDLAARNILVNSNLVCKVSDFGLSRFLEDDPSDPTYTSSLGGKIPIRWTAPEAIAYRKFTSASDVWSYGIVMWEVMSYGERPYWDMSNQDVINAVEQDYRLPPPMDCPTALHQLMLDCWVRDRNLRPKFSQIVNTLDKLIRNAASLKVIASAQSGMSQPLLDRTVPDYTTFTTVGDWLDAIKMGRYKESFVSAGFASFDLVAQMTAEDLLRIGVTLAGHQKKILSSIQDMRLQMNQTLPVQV
Kind of test: Kinase profiling EPH-B3. The following applies: 100 micromolar inhibitor concentration, 100 is no change.
Text: as §1

Test [6] concerns the target T2, ULK2 (Homo sapiens, UniProt Q8IYT8).
T2 sequence (Q8IYT8 1-1036): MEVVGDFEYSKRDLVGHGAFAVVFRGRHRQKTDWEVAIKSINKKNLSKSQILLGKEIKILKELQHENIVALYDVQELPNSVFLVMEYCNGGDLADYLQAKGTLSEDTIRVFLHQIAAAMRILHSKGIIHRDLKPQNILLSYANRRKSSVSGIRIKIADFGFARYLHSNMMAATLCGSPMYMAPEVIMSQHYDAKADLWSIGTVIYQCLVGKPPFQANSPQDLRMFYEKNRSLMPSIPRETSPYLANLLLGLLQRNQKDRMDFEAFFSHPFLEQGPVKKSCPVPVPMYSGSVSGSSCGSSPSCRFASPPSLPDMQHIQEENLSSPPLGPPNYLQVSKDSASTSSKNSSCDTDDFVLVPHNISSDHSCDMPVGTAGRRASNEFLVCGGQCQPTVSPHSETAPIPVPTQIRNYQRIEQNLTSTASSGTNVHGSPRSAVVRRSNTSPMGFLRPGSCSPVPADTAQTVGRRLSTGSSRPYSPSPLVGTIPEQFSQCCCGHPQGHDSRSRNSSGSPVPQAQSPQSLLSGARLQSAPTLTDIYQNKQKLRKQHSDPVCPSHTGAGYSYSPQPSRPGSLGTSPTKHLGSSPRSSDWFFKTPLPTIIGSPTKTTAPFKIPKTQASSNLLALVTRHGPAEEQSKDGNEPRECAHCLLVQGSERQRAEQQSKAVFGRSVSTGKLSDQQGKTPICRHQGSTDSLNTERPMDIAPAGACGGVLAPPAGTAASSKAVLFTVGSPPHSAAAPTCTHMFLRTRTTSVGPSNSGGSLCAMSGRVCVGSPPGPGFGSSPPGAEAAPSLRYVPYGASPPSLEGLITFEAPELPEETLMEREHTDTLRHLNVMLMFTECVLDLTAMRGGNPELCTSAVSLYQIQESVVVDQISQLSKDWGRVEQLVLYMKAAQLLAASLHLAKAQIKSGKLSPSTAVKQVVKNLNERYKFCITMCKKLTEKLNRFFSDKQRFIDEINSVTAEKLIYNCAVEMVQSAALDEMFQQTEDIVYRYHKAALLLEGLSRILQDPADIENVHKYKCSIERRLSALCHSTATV
Kind of test: Kinase profiling ULK2. Particulars: 100 micromolar inhibitor concentration, 100 is no change.
Text: as §1

Test [7] concerns the target IRR (Homo sapiens, UniProt P14616). Description: Kinase profiling IRR. Particulars: 100 micromolar inhibitor concentration, 100 is no change.
Text: as §1

In test [8] the target is MINK1 (Homo sapiens, UniProt Q8N4C8). Kind of test: Kinase profiling MINK1. Particulars: 100 micromolar inhibitor concentration, 100 is no change.
Text: as §1

Test [9] addresses ERK5 (Homo sapiens, UniProt Q13164). Kind of test: Kinase profiling ERK5. Particulars: 100 micromolar inhibitor concentration, 100 is no change.
Text: as §1

Test [10] concerns the target MARK2 (Homo sapiens, UniProt Q7KZI7). Description: Kinase profiling MARK2. Particulars: 100 micromolar inhibitor concentration, 100 is no change.
Text: as §1

Test [11] deals with T3, TGFBR1 (Homo sapiens, UniProt P36897).
T3 sequence (P36897 34-503): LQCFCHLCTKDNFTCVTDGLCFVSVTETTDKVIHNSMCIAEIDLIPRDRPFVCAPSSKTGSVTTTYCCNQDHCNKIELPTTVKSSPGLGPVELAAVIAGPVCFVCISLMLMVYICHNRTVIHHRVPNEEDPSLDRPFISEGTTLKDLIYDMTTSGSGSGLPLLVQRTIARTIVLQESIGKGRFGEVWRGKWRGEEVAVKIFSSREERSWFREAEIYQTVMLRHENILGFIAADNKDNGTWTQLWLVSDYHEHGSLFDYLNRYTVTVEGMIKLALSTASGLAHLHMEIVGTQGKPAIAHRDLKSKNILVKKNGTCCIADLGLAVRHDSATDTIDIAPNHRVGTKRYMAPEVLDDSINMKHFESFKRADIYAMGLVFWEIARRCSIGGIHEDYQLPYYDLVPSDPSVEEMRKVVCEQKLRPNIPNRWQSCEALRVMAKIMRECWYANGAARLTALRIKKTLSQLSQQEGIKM
Description: Kinase profiling TGFBR1. The following applies: 100 micromolar inhibitor concentration, 100 is no change.
Text: as §1

Chain of MEKK1 (Q13233 whole entry, species assumed): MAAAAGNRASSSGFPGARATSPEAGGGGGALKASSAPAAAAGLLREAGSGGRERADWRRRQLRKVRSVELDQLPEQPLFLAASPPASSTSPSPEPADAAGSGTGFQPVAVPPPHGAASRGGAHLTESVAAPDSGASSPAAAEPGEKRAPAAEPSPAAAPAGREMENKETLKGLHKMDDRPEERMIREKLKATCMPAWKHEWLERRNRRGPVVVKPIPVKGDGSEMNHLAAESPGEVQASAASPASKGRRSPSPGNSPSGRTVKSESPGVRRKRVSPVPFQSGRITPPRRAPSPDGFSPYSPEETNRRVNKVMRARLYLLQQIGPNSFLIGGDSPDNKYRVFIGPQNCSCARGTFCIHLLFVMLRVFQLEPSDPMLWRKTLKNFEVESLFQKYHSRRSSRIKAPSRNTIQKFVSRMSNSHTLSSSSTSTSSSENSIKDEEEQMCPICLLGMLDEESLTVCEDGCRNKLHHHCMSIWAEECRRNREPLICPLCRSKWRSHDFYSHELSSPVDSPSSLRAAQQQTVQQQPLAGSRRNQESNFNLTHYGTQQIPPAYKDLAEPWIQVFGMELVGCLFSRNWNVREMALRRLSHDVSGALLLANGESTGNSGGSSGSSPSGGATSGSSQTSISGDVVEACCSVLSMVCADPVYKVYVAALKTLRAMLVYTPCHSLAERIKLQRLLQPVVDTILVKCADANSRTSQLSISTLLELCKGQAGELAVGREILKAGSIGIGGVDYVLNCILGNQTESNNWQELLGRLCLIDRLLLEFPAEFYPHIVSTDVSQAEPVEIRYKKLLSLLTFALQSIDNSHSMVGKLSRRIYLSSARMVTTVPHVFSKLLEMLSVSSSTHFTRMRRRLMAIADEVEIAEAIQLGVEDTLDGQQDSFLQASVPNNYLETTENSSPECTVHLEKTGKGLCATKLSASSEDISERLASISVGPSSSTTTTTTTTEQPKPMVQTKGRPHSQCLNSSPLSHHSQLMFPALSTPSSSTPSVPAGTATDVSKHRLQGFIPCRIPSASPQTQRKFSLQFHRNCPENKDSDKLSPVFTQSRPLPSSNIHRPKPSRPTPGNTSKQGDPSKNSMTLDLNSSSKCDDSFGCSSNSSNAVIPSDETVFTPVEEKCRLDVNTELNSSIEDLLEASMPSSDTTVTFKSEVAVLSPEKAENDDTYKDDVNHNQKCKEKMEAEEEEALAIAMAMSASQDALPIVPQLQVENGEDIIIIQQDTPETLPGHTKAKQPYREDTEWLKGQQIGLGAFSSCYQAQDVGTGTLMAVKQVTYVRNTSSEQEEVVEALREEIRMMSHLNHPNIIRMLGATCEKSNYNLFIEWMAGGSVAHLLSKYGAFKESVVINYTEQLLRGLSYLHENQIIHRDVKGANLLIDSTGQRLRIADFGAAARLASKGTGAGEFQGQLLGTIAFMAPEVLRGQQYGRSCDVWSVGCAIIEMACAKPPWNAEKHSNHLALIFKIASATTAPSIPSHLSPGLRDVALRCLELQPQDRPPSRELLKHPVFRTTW
Chain of ERK5 (Q13164 whole entry, species assumed): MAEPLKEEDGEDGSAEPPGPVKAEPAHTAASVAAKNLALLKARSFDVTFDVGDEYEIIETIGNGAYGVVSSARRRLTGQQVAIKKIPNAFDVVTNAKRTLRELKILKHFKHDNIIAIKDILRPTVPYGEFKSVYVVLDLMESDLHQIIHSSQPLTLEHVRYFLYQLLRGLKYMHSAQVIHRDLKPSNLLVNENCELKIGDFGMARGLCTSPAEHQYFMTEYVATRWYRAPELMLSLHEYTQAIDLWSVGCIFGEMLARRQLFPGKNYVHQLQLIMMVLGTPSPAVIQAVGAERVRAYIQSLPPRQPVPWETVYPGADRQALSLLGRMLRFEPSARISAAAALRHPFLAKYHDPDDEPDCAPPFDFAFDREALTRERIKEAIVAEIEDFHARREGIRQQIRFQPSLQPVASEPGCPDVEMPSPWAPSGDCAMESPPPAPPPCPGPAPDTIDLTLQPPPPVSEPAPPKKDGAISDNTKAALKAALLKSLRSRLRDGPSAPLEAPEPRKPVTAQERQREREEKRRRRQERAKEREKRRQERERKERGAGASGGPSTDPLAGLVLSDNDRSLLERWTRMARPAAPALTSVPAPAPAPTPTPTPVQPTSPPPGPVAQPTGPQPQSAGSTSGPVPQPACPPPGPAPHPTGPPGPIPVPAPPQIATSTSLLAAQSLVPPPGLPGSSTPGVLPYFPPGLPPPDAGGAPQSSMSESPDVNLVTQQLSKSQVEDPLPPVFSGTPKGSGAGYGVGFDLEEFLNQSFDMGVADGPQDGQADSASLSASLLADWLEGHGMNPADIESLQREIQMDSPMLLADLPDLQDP
Chain of IRR (P14616 27-1297, species assumed): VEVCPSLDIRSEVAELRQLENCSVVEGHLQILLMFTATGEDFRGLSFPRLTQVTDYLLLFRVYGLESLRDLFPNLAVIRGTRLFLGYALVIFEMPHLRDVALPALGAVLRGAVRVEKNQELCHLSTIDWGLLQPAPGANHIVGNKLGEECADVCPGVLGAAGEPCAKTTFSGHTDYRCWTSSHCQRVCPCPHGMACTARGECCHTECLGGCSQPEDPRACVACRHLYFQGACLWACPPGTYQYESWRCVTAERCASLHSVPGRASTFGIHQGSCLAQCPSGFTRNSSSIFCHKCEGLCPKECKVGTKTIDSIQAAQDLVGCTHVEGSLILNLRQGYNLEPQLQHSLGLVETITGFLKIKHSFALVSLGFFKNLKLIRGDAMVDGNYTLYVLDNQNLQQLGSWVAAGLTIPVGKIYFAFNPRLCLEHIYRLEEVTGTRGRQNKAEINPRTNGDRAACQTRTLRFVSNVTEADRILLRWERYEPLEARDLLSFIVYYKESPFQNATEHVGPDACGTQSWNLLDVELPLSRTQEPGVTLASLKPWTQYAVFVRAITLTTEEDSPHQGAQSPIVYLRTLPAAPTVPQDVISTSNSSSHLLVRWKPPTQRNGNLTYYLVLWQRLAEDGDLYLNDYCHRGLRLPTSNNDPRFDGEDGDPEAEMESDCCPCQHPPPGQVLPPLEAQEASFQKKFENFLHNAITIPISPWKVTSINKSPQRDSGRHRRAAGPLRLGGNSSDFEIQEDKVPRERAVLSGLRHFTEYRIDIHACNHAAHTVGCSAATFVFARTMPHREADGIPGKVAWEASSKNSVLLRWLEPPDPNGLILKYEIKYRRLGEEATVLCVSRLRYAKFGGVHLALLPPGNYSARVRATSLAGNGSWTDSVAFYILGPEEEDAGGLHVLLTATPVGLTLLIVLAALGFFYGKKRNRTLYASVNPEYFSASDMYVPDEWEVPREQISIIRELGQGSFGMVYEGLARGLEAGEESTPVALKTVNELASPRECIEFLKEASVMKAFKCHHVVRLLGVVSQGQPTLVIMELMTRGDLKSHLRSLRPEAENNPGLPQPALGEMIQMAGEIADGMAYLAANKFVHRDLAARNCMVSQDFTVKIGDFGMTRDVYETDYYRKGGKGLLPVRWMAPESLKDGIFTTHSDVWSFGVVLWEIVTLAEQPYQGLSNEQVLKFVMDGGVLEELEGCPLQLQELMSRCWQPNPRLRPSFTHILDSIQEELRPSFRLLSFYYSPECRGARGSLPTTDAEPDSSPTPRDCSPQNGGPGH
Chain of PAK5 (Q9P286 whole entry): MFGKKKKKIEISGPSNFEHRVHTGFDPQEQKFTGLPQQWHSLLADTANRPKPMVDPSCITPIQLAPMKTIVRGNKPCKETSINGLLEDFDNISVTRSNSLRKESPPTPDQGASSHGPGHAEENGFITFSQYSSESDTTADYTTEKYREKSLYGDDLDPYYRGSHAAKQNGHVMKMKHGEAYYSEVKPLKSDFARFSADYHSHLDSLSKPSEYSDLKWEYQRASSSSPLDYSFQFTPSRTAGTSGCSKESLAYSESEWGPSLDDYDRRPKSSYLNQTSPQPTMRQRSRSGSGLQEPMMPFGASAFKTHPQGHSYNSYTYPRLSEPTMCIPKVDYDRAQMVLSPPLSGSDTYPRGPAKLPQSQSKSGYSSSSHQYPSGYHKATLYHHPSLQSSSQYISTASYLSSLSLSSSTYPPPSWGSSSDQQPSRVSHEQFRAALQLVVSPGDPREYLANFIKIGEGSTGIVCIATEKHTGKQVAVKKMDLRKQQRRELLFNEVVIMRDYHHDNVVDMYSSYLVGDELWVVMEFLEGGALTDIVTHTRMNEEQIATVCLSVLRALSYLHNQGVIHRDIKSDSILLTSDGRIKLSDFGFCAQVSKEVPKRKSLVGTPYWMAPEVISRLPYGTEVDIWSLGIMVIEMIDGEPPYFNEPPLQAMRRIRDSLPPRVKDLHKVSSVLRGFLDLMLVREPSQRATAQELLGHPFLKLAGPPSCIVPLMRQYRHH
Chain of YES1 (P07947 whole entry, species assumed): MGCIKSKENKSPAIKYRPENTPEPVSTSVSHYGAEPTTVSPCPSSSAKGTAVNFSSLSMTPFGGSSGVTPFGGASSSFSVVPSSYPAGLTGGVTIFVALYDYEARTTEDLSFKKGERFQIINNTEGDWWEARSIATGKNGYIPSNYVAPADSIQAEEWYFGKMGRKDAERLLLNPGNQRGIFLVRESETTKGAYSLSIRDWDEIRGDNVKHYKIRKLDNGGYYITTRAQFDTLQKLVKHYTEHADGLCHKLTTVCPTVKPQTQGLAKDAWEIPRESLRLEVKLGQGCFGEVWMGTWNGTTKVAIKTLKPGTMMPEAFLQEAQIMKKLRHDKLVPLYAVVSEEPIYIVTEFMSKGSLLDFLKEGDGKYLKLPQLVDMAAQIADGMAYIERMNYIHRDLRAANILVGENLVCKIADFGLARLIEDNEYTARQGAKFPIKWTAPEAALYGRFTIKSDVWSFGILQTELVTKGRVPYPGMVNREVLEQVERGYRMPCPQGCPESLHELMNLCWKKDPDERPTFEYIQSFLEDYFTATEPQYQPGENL

With `O=C(Nc1nc2ccc(O)cc2s1)c1ccccn1` [Compound 03-12], in test [1], the “residual kinase activity, YES1” value was determined as 73. Also, the “residual kinase activity, AMPK” value in test [2] is 86. Besides, the “residual kinase activity, MEKK1” value in test [3] was 127. Further, the “residual kinase activity, PAK5” value in test [4] came to 94. The “residual kinase activity, EPH-B3” value in test [5] is listed as 63. For the same compound, in test [6], the “residual kinase activity, ULK2” value worked out at 87. In addition, the “residual kinase activity, IRR” value in test [7] stood at 82. In test [8], the “residual kinase activity, MINK1” value is 48. Also, the “residual kinase activity, ERK5” value in test [9] came to 53. The “residual kinase activity, MARK2” value in test [10] was 90. In test [11], the “residual kinase activity, TGFBR1” value is reported as 117.
For the compound `O=C(Nc1nc2cc(O)ccc2s1)c1ccccn1` [Compound 03-13], the “residual kinase activity, YES1” value in test [1] turned out to be 60. In addition, in [2], the “residual kinase activity, AMPK” value is recorded as 80. Also, the “residual kinase activity, MEKK1” value in test [3] is listed as 114. The “residual kinase activity, PAK5” value in test [4] came out at 82. The “residual kinase activity, EPH-B3” value in test [5] was determined as 44. The “residual kinase activity, ULK2” value in [6] was found to be 56. In [7], the “residual kinase activity, IRR” value is given as 78. The “residual kinase activity, MINK1” value in test [8] worked out at 31. Also, the “residual kinase activity, ERK5” value in [9] worked out at 51. The “residual kinase activity, MARK2” value in [10] stood at 84. In addition, the “residual kinase activity, TGFBR1” value in test [11] came to 109.
On to `COc1ccc2sc(NC(C)=O)nc2c1` [Compound 03-21], for which the remaining activity at 100 µM in [1] (read-out: residual kinase activity, YES1) is 93%; in test [3] (read-out: residual kinase activity, MEKK1), 113%; in [4] (read-out: residual kinase activity, PAK5), 110%; in [5] (read-out: residual kinase activity, EPH-B3), 106%; in test [6] (read-out: residual kinase activity, ULK2), 86%; in test [7] (read-out: residual kinase activity, IRR) it was 47%. For the same compound, the remaining activity at 100 µM in test [8] (read-out: residual kinase activity, MINK1) turned out to be 61%; in test [9] (read-out: residual kinase activity, ERK5) it was 57%; in [10] (read-out: residual kinase activity, MARK2), 103%; in [11] (read-out: residual kinase activity, TGFBR1), 124%. Also, in [2], the “residual kinase activity, AMPK” value turned out to be 100.
`CC(=O)Nc1nc2ccccc2s1` [Compound 03-32]: in [1], the “residual kinase activity, YES1” value amounted to 93. The “residual kinase activity, AMPK” value in test [2] was 107. Also, in test [3], the “residual kinase activity, MEKK1” value turned out to be 93. Besides, the “residual kinase activity, PAK5” value in test [4] was 74. In [5], the “residual kinase activity, EPH-B3” value is on record as 71. Also, in [6], the “residual kinase activity, ULK2” value was found to be 92. Moreover, in test [7], the “residual kinase activity, IRR” value turned out to be 63. The “residual kinase activity, MINK1” value in test [8] stood at 92. In test [9], the “residual kinase activity, ERK5” value was 66. Further, the “residual kinase activity, MARK2” value in test [10] was 88. For the same compound, the “residual kinase activity, TGFBR1” value in [11] was 92.
Turning to `O=C(Nc1nc2cc(O)ccc2s1)c1cccnc1` [Compound 03-33], the “residual kinase activity, YES1” value in test [1] worked out at 91. The “residual kinase activity, AMPK” value in [2] came to 91. For the same compound, the “residual kinase activity, MEKK1” value in test [3] was determined as 107. In addition, the “residual kinase activity, PAK5” value in test [4] is 109. For the same compound, in test [5], the “residual kinase activity, EPH-B3” value came to 108. The “residual kinase activity, ULK2” value in [6] came out at 85. The “residual kinase activity, IRR” value in test [7] stood at 51. The “residual kinase activity, MINK1” value in [8] stood at 51. For the same compound, the “residual kinase activity, ERK5” value in [9] worked out at 58. Further, the “residual kinase activity, MARK2” value in test [10] worked out at 102. For the same compound, the “residual kinase activity, TGFBR1” value in [11] is 88.
As to `O=C(Nc1nc2ccc(O)cc2s1)c1ccccc1` [Compound 03-60], the “residual kinase activity, YES1” value in [1] came to 65. Also, the “residual kinase activity, AMPK” value in test [2] stood at 30. In addition, the “residual kinase activity, MEKK1” value in [3] worked out at 105. In addition, the “residual kinase activity, PAK5” value in test [4] is 70. Further, the “residual kinase activity, EPH-B3” value in test [5] is listed as 93. In addition, the “residual kinase activity, ULK2” value in test [6] turned out to be 69. The “residual kinase activity, IRR” value in [7] was 31. Also, the “residual kinase activity, MINK1” value in [8] is listed as 7. Besides, the “residual kinase activity, ERK5” value in [9] is on record as 30. In addition, the “residual kinase activity, MARK2” value in test [10] was 65. Further, the “residual kinase activity, TGFBR1” value in [11] is 93.
